Laboratory results: ChEMBL document CHEMBL1201862, “PubChem BioAssay data set” (2004)
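Growth conditions: 96-well plates. Treatment: test compound, 48 hours, 5 concentrations. Analysis: linear interpolation between bracketing concentrations; unreached endpoints set to highest concentration. At the GI50, growth is halved.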 The source made the active and inactive calls. Cut-off read from the data, not from the text of the source: active = GI50 up to about 1.1 µM and inactive = higher.

Columns and labels:
Test in all cases: growth of human tumour cells (NCI), 48 h
MOLT-4 = system: MOLT-4
NCI-H23 = system: NCI-H23
NCI-H522 = system: NCI-H522
A549 = system: A549
SNB-19 = system: SNB-19
SK-MEL-2 = system: SK-MEL-2
Malme-3M = system: Malme-3M
BT-549 = system: BT-549
U-251 = system: U-251
A498 = system: A498
K562 = system: K562
TK-10 = system: TK-10
PC-3 = system: PC-3
SF-539 = system: SF-539
MDA-N = system: MDA-N
SF-295 = system: SF-295
UO-31 = system: UO-31
SR = system: SR
HCC 2998 = system: HCC 2998
SW-620 = system: SW-620

## Cc1cc2nn(C3CCCCO3)nc2cc1C (centres undefined)
MOLT-4
  GI50: > 100 µM (inactive)
NCI-H23
  GI50: > 100 µM (inactive)
NCI-H522
  GI50: > 100 µM (inactive)
A549
  GI50: > 100 µM (inactive)
SNB-19
  GI50: > 100 µM (inactive)
SK-MEL-2
  GI50: > 100 µM (inactive)
Malme-3M
  GI50: > 100 µM (inactive)
BT-549
  GI50: > 100 µM (inactive)
U-251
  GI50: > 100 µM (inactive)
A498
  GI50: 60.4 µM (inactive)
K562
  GI50: > 100 µM (inactive)
TK-10
  GI50: > 100 µM (inactive)
PC-3
  GI50: > 100 µM (inactive)
SF-539
  GI50: > 100 µM (inactive)
MDA-N
  GI50: > 100 µM (inactive)
SF-295
  GI50: > 100 µM (inactive)
UO-31
  GI50: 75.7 µM (inactive)
SR
  GI50: > 100 µM (inactive)
HCC 2998
  GI50: > 100 µM (inactive)

## Cc1cccc(C)c1NC(=O)/C(Cl)=C(/Cl)C(=O)O
MOLT-4
  GI50: 3.99 µM (inactive)
SW-620
  GI50: 7.74 µM (inactive)
NCI-H23
  GI50: 19.1 µM (inactive)
NCI-H522
  GI50: 4.33 µM (inactive)
A549
  GI50: 20.7 µM (inactive)
SNB-19
  GI50: 24.5 µM (inactive)
SK-MEL-2
  GI50: 16.7 µM (inactive)
Malme-3M
  GI50: 14.7 µM (inactive)
BT-549
  GI50: 17.6 µM (inactive)
U-251
  GI50: 21.1 µM (inactive)
A498
  GI50: 33.5 µM (inactive)
K562
  GI50: 3.23 µM (inactive)
TK-10
  GI50: 14.7 µM (inactive)
PC-3
  GI50: 19.8 µM (inactive)
SF-539
  GI50: 23.1 µM (inactive)
MDA-N
  GI50: 19.2 µM (inactive)
SF-295
  GI50: 29.2 µM (inactive)
UO-31
  GI50: 14.8 µM (inactive)
SR
  GI50: 8.41 µM (inactive)
HCC 2998
  GI50: 18 µM (inactive)

## Clc1c2ncccc2cc2nn[nH]c12
MOLT-4
  GI50: 15.8 µM (inactive)
SW-620
  GI50: > 100 µM (inactive)
NCI-H23
  GI50: > 100 µM (inactive)
NCI-H522
  GI50: 33 µM (inactive)
A549
  GI50: > 100 µM (inactive)
SNB-19
  GI50: > 100 µM (inactive)
SK-MEL-2
  GI50: > 100 µM (inactive)
Malme-3M
  GI50: 79.3 µM (inactive)
BT-549
  GI50: > 100 µM (inactive)
U-251
  GI50: > 100 µM (inactive)
A498
  GI50: > 100 µM (inactive)
K562
  GI50: > 100 µM (inactive)
TK-10
  GI50: > 100 µM (inactive)
PC-3
  GI50: > 100 µM (inactive)
SF-539
  GI50: > 100 µM (inactive)
MDA-N
  GI50: > 100 µM (inactive)
SF-295
  GI50: 41 µM (inactive)
UO-31
  GI50: 82.6 µM (inactive)
SR
  GI50: 23.3 µM (inactive)
HCC 2998
  GI50: > 100 µM (inactive)

## O=C(O)C1CSC2(CCCN(Cc3ccccc3)C2)N1 (centres undefined)
MOLT-4
  GI50: > 20.7 µM (inactive)
SW-620
  GI50: > 100 µM (inactive)
NCI-H23
  GI50: > 100 µM (inactive)
NCI-H522
  GI50: > 100 µM (inactive)
A549
  GI50: > 100 µM (inactive)
SNB-19
  GI50: > 100 µM (inactive)
SK-MEL-2
  GI50: > 100 µM (inactive)
Malme-3M
  GI50: > 100 µM (inactive)
BT-549
  GI50: > 100 µM (inactive)
U-251
  GI50: > 100 µM (inactive)
A498
  GI50: > 100 µM (inactive)
K562
  GI50: > 28.8 µM (inactive)
TK-10
  GI50: > 100 µM (inactive)
PC-3
  GI50: > 100 µM (inactive)
SF-539
  GI50: > 100 µM (inactive)
MDA-N
  GI50: > 100 µM (inactive)
SF-295
  GI50: > 100 µM (inactive)
UO-31
  GI50: > 100 µM (inactive)
SR
  GI50: 4.81 µM (inactive)
HCC 2998
  GI50: > 100 µM (inactive)

## COc1cccc(-c2cc(O)c3cc(Cl)cnc3n2)c1
MOLT-4
  GI50: 0.0991 µM (active)
SW-620
  GI50: 0.0488 µM (active)
NCI-H23
  GI50: 0.254 µM (active)
NCI-H522
  GI50: 0.0577 µM (active)
A549
  GI50: 0.162 µM (active)
SNB-19
  GI50: 0.122 µM (active)
SK-MEL-2
  GI50: 0.757 µM (active)
Malme-3M
  GI50: 2.25 µM (inactive)
BT-549
  GI50: 2.17 µM (inactive)
U-251
  GI50: 0.0693 µM (active)
A498
  GI50: 0.131 µM (active)
K562
  GI50: 0.0419 µM (active)
TK-10
  GI50: 12.9 µM (inactive)
PC-3
  GI50: 0.065 µM (active)
SF-539
  GI50: 0.0348 µM (active)
MDA-N
  GI50: 0.0144 µM (active)
SF-295
  GI50: 0.0687 µM (active)
UO-31
  GI50: 0.313 µM (active)
SR
  GI50: 0.0292 µM (active)
HCC 2998
  GI50: 0.164 µM (active)

## NCCCNCCCCN1CCOC1=O
MOLT-4
  GI50: > 100 µM (inactive)
SW-620
  GI50: > 100 µM (inactive)
NCI-H23
  GI50: > 100 µM (inactive)
NCI-H522
  GI50: > 100 µM (inactive)
A549
  GI50: > 100 µM (inactive)
SNB-19
  GI50: > 100 µM (inactive)
SK-MEL-2
  GI50: > 100 µM (inactive)
Malme-3M
  GI50: > 100 µM (inactive)
BT-549
  GI50: > 100 µM (inactive)
U-251
  GI50: > 100 µM (inactive)
A498
  GI50: > 100 µM (inactive)
K562
  GI50: > 100 µM (inactive)
TK-10
  GI50: > 100 µM (inactive)
PC-3
  GI50: > 100 µM (inactive)
SF-539
  GI50: > 100 µM (inactive)
MDA-N
  GI50: > 100 µM (inactive)
SF-295
  GI50: > 100 µM (inactive)
UO-31
  GI50: > 100 µM (inactive)
SR
  GI50: > 100 µM (inactive)
HCC 2998
  GI50: > 100 µM (inactive)

## COC(=O)c1ccc(/C=C/c2cc(O)ccc2O)cc1
MOLT-4
  GI50: 0.255 µM (active)
SW-620
  GI50: 3.69 µM (inactive)
NCI-H23
  GI50: 4.39 µM (inactive)
NCI-H522
  GI50: 0.194 µM (active)
A549
  GI50: 19.8 µM (inactive)
SNB-19
  GI50: 33.3 µM (inactive)
SK-MEL-2
  GI50: 14.3 µM (inactive)
Malme-3M
  GI50: 0.923 µM (active)
BT-549
  GI50: 1.11 µM (active)
U-251
  GI50: 2.51 µM (inactive)
A498
  GI50: 5.15 µM (inactive)
K562
  GI50: 1.04 µM (active)
TK-10
  GI50: 8.43 µM (inactive)
PC-3
  GI50: 1.48 µM (inactive)
SF-539
  GI50: 1.6 µM (inactive)
MDA-N
  GI50: 3.44 µM (inactive)
SF-295
  GI50: 13.1 µM (inactive)
UO-31
  GI50: 1.47 µM (inactive)
SR
  GI50: 0.787 µM (active)
HCC 2998
  GI50: 20 µM (inactive)

## O=C(O)Cc1cccc2c(=O)cc(-c3ccccc3)oc12 [MITOFLAXONE]
MOLT-4
  GI50: > 209 µM (inactive)
SW-620
  GI50: > 250 µM (inactive)
NCI-H23
  GI50: > 250 µM (inactive)
NCI-H522
  GI50: 228 µM (inactive)
A549
  GI50: 245 µM (inactive)
SNB-19
  GI50: > 250 µM (inactive)
SK-MEL-2
  GI50: 153 µM (inactive)
Malme-3M
  GI50: > 250 µM (inactive)
BT-549
  GI50: 204 µM (inactive)
U-251
  GI50: > 250 µM (inactive)
A498
  GI50: 226 µM (inactive)
K562
  GI50: 239 µM (inactive)
TK-10
  GI50: > 250 µM (inactive)
PC-3
  GI50: > 250 µM (inactive)
SF-539
  GI50: > 250 µM (inactive)
MDA-N
  GI50: 385 µM (inactive)
SF-295
  GI50: 242 µM (inactive)
UO-31
  GI50: 147 µM (inactive)
SR
  GI50: 321 µM (inactive)
HCC 2998
  GI50: > 250 µM (inactive)

## NC(Cc1c[nH]c(I)n1)C(=O)O (centres undefined)
MOLT-4
  GI50: > 100 µM (inactive)
SW-620
  GI50: 30 µM (inactive)
NCI-H23
  GI50: 81.3 µM (inactive)
NCI-H522
  GI50: 24.3 µM (inactive)
A549
  GI50: > 100 µM (inactive)
SNB-19
  GI50: > 100 µM (inactive)
SK-MEL-2
  GI50: > 100 µM (inactive)
Malme-3M
  GI50: 17.7 µM (inactive)
BT-549
  GI50: 43.4 µM (inactive)
U-251
  GI50: > 100 µM (inactive)
A498
  GI50: > 100 µM (inactive)
K562
  GI50: 53.6 µM (inactive)
TK-10
  GI50: > 100 µM (inactive)
PC-3
  GI50: > 100 µM (inactive)
SF-539
  GI50: 37.4 µM (inactive)
MDA-N
  GI50: > 100 µM (inactive)
SF-295
  GI50: > 100 µM (inactive)
UO-31
  GI50: > 100 µM (inactive)
SR
  GI50: 34.4 µM (inactive)
HCC 2998
  GI50: 34.9 µM (inactive)

## O=C1CSC(c2ccccc2)N1c1nc2cc3sc(N4C(=O)CSC4c4ccccc4)nc3cc2s1 (centres undefined)
MOLT-4
  GI50: 5.86 µM (inactive)
SW-620
  GI50: 9.95 µM (inactive)
NCI-H23
  GI50: 15 µM (inactive)
NCI-H522
  GI50: 6.87 µM (inactive)
A549
  GI50: 8.17 µM (inactive)
SNB-19
  GI50: 78.3 µM (inactive)
SK-MEL-2
  GI50: 63.7 µM (inactive)
Malme-3M
  GI50: > 87.7 µM (inactive)
BT-549
  GI50: 37.6 µM (inactive)
U-251
  GI50: 38.2 µM (inactive)
A498
  GI50: > 100 µM (inactive)
K562
  GI50: 47.4 µM (inactive)
TK-10
  GI50: 53.2 µM (inactive)
PC-3
  GI50: 48.4 µM (inactive)
SF-539
  GI50: 3.03 µM (inactive)
MDA-N
  GI50: > 64.4 µM (inactive)
SF-295
  GI50: > 100 µM (inactive)
UO-31
  GI50: 40.6 µM (inactive)
SR
  GI50: 16.5 µM (inactive)
HCC 2998
  GI50: > 93.3 µM (inactive)
